# Key:
# [1] = molecular target: T1, Abeta:Zn (25:50 μM) Synthetic Aggregations (Homo sapiens, UniProt P05067); assay: Disaggregation of Abeta:Zn synthetic aggregates (ThT fluorescence); format: biochemical; conditions: for Disaggregation % Aggregate reduction at 5 μM: 5 μM test compound; for EC50: Abeta:Zn 25:50 μM aggregates
# T1 construct: PB Compound Mediated Dissolution of Aggregated Abeta 1-42; purchased Keck Laboratory, Yale University School of Medicine
# Description: PB Compound Mediated Dissolution of Aggregated Abeta 1-42
# Abeta1-42, is available from the Keck Laboratory, Yale University School of Medicine. PBS (pH 6.6): Sigma Cat# D-8662. Zn(ZnCl2): BDH Cat#100884E. (Dissolved in water in 1 mM concentration) DMSO: Ajax Cat#2225. Thioflavin T: Sigma Cat# T-3516. (Dissolved in water in 1 mM concentration)
# By way of example of an amyloid composition, Abeta is dissolved in distilled water and peptide concentration is assessed by measured absorption at 214 nm in UV spectrometer. An aggregation reactive mixture (per one concentration of one testing compound) is set us as follows: Abeta: 25 μM, ZnCl2 50 μM, ThT 50 μM, PBS to make up to 500 μl. The tube is wrapped with foil and incubated at 37 degrees by rotation for 24 hours. A serial dilution of each test compound is made up in DMSO, for example: 100 μM, 500 μM, 1000 μM, 2500 μM and 5000 μM. The final concentrations are 1, 5, 10, 25 and 50 μM, 5 μl of each of these compounds is placed in a centrifuge tube and 5 μl of DMSO is added to both negative and positive control tubes. 495 μl of aggregates (after 24 hours incubation) is added to the centrifuge tube. The negative control is PBS plus ZnCl2 and ThT and DMSO. The positive control is aggregates plus DMSO. The tubes are incubated at 37 degrees for further 2 hours with rotation. Samples are measured for ThT fluorescence using an LS55 (Perkin Elmer) fluorimeter in a cuvette (500 μl volume). The excitation wavelength is 450 nm and the emission wavelength is 480 nm. Data are analyzed using graph pad prism program. The tested compounds included so called “PB” compounds.
# Aβ 1-42 = molecular target: T2, Aβ 1-42 (Homo sapiens, UniProt P05067); assay: Fluorometric H2O2 assay (inhibition of Abeta H2O2 production); format: biochemical; conditions: concentration required to inhibit 50% of Abeta H2O2 production; read-out: H2O2 IC50
# T2 construct: The reaction solutions contained Aβ 1-42 at concentrations
# T2 sequence (P05067 672-713 limits assumed): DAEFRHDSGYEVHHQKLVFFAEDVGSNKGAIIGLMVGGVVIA
# Description: Assay 1. Fluorometric H2O2 Assay
# A fluorometric assay was used to test the ability of a test compound to inhibit hydrogen peroxide generation by Aβ in the presence of copper based on dichlorofluoroscein diacetate (DCF; Molecular Probes, Eugene Oreg.). The DCF solution (5 mM) in 100% dimethyl sulphoxide (previously purged with argon for 2 hr at 20° C.) was deacetylated in the presence of 0.25M NaOH for 30 min and neutralized at pH 7.4 to a final concentration of 1 mM. Horseradish peroxidase (HRP) stock solution was prepared to 1 μM at pH 7.4. The reactions were carried out in PBS, pH 7.4 in a 96 well plate (total volume=250 μl/well). […] The reaction mixture was incubated at 37 C for 60 min. […] H2O2 concentration may be established by comparing fluorescence with the H2O2 standards, Inhibition of Aβ H2O2 production was assayed by including a given concentration of test compound(s) in the test wells.
# [2] = system: primary cortical neuronal cultured cells; assay: Test compound cytotoxicity, MTS assay, primary cortical neuronal cultures; format: cell-based, mouse; conditions: for Cytotox (% viable) Neuronal cells at 1 μM: 1 μM test compound; for Cytotox (% viable) Neuronal cells at 10 μM: 10 μM test compound
# Description: Assay 2. Neurotoxicity Assays
# Primary Cortical Neuronal Cultures
# Media was then replaced with Neurobasal media (Invitrogen Life Technologies) and B27 supplements (Invitrogen Life Technologies). Cultures were maintained at 37° C. in 5% CO2. Prior to experimentation, the culture medium was replaced with Neurobasal media and B27 minus antioxidants (Invitrogen Life Technologies).
# (§1) Assay 3. MTS Assay for Cell Viability
# (§2) Cell viability is determined using the MTS assay. Culture medium is replaced with fresh neurobasal medium plus B27 supplements minus antioxidants. 1/10th volume MTS solution (Cell Titre 96 Aqueous One, Promega Corporation) and incubated at 37° C., 2 hrs. 200 microliter aliquots are measured with a spectrophotometer at 560 nm.
# Assay 4. Assay for Test Compound Cytoxicity
# Neuronal cortical cells were cultured for five days as per Assay 2 in NB media and B27 supplement.
# On day six the test compounds were added to the neuronal cell cultures in NB media and B27 supplement minus antioxidants.
# Test compounds were dissolved in 100% DMSO to a concentration of 2.5 mM (10 mM if excess compound was weighed out per vial—then diluted to 2.5 mM).
# Test compounds were not added directly to cells, instead they were added to a 48 well ‘Drug Plate’ as comprised below:
# The Drug Plate was incubated at 37° C. for 15 mins. 200 μl of each well was added in triplicate to the corresponding cell plate. The cell plate was incubated at 37 C, for 4 days.
# On completion of the assay, 1/10 volume MTS was added per well of plate (ie 25 μl/250 μl). The plates were incubated at 37 C for 2 hrs, and then absorbance was read at 560 nm.
# [3] = system: M17 human neuroblastoma cells; assay: Cytotoxicity, M17 human neuroblastoma cells; format: cell-based; conditions: for Cytotox (% viable) M17 cells at 1 μM: 1 μM test compound; for Cytotox (% viable) M17 cells at 10 μM: 10 μM test compound
# Description: as §1, §2
# T1 sequence (P05067 672-713 limits assumed): as above
SMILES,Disaggregation % Aggregate reduction at 5 μM [1] [%],EC50 [1] [µM],IC50 (Aβ 1-42) [µM],Cytotox (% viable) Neuronal cells at 1 μM [2] [%],Cytotox (% viable) Neuronal cells at 10 μM [2] [%],Cytotox (% viable) M17 cells at 1 μM [3] [%],Cytotox (% viable) M17 cells at 10 μM [3] [%]
O=S(=O)(O)c1ccc(-c2ccnc3c2ccc2c(-c4ccc(S(=O)(=O)O)cc4)ccnc23)cc1 [PB 68],44,8.5,> 10,–,–,–,–
CN(C)c1ccc(-c2cc(Cl)c3cccnc3c2O)cc1 [PB 851],–,–,–,94,85,–,–
c1ccc(-c2ccccn2)nc1 [PB 898],32,> 20,0.23,–,–,–,–
Br.CC(Br)CCn1cnc2c(O)c(Cl)cc(Cl)c2c1=O (stereo not drawn) [PB 1114],19.2,> 20,–,101,73,–,–
CCc1cnc2c(O)cccn2c1=O [PB 1124],8.4,> 20,0.4,–,–,96.1,27.1
Br.C/C=C/Cn1cnc2c(O)c(Cl)cc(Cl)c2c1=O [PB 1126],69,3.7,–,–,–,–,–
CCc1cnc2c(O)cccn2c1=S [PB 1143],62,4.1,0.48,–,–,93.3,73.7
O=C(NCc1ccc(F)cc1)c1cnc2c(O)cccn2c1=O [PB 1154],31,> 20,0.64,–,–,76.7,54.2
O=c1c2ccc(I)c(O)c2ncn1Cc1cccc(Cn2cnc3c(O)c(I)ccc3c2=O)n1 [PB 1155],59,3.9,0.31,–,–,–,–
CCCCNC(=O)c1cnc2c(O)cccn2c1=O [PB 1159],49.9,5.06,0.68,–,–,115,41.1
O=c1c2ccc(I)c(O)c2ncn1-c1ccc(F)cc1 [PB 1162],52,4.7,3.2,–,–,93.9,36.5
Oc1ccccc1-c1cn2ccccc2n1 [PB 1173],10,> 20,> 20,–,–,–,–
Oc1cccc2sc(Cc3ccccc3)nc12 [PB 1191],10,6.89,> 10,–,–,–,–
COc1ccc(NCc2cccc3cccnc23)cc1 [PB 1194],21.5,> 20,> 10,–,–,–,–
Fc1ccc(NCc2cccc3cccnc23)cc1 [PB 1195],19.9,> 20,> 10,–,–,–,–

# Now from value to compound, other results behind:
Disaggregation % Aggregate reduction at 5 μM [1] [%],EC50 [1] [µM],IC50 (Aβ 1-42) [µM],SMILES,Cytotox (% viable) Neuronal cells at 1 μM [2] [%],Cytotox (% viable) Neuronal cells at 10 μM [2] [%],Cytotox (% viable) M17 cells at 1 μM [3] [%],Cytotox (% viable) M17 cells at 10 μM [3] [%]
57.3,< 0.4,0.72,O=c1c2cccc(O)c2ncn1Cc1ccccn1 [PB 1117],–,–,109.2,96
58,< 0.4,1.44,O=c1c2cccc(O)c2ncn1CC1CC1 [PB 1118],–,–,106.8,88.6
16,15.2,0.47,O=c1c2c(Cl)ccc(O)c2ncn1CC1CC1 [PB 1132],–,–,86.3,57.6
22,> 20,0.79,O=c1c2c(Cl)ccc(O)c2ncn1Cc1ccccn1 [PB 1133],–,–,–,–
26,19.5,0.48,O=c1c2c(Cl)cc(I)c(O)c2ncn1Cc1ccccn1 [PB 1141],–,–,102.8,137
22,> 20,0.96,O=c1c2cccc(O)c2ncn1-c1ccc(F)cc1 [PB 1156],–,–,92.7,67.5
43.3,11,0.29,CCN(CC)CCn1cnc2c(O)c(I)ccc2c1=O [PB 1163],–,–,106.5,41.4
26,> 20,0.24,O=c1c2c(Cl)cc(I)c(O)c2ncn1-c1cccnc1 [PB 1164],–,–,112,111
21.7,> 20,0.43,CCCNC(=O)Cn1cnc2c(O)c(I)ccc2c1=O [PB 1166],–,–,105,115.8
39.3,7.4,0.39,CCN(CC)C(=O)Cn1cnc2c(O)c(I)ccc2c1=O [PB 1167],–,–,92.2,98.7
64,1.44,0.31,CCn1cnc2c(O)c(I)cc(I)c2c1=O [PB 1169],–,–,–,–

# Source: patent US9163018B2, “Method of treatment of age-related macular degeneration (AMD)” (Prana Biotechnology Limited, priority 2006, dated 2015)
